Where two headings read alike, the source gives them in different places. Marks after values point to notes of the source that are not given here.
Assays:
Format in all cases: in vivo
[1] = tested on: Erysiphe graminis f. sp. tritici; test: Test A: wheat powdery mildew, preventive spray on wheat seedlings, disease rating
Procedure, shortened: (§1)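 Compounds were dissolved in acetone (3% of final volume), then suspended in 50/50 acetone/water with 250 ppm polyhydric alcohol ester surfactant and sprayed to run-off on wheat seedlings. Unless marked otherwise, values are at 200 ppm (equivalent to 500 g/ha); some are at 40 or 50 ppm.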

[2] = tested on: Puccinia recondita f. sp. tritici; test: Test B: wheat leaf rust, preventive spray on wheat seedlings, disease rating
Procedure, shortened: as §1

Septoria nodorum = test: Test C: wheat glume blotch, preventive spray on wheat seedlings, disease rating
Procedure, shortened: as §1

Septoria tritici = test: Test D: wheat leaf blotch, preventive spray on wheat seedlings, disease rating
Procedure, shortened: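 Wheat seedlings sprayed to run-off with compound in acetone/water containing 250 ppm Trem 014 (200 ppm ≈ 500 g/ha; some results at 40 or 50 ppm), inoculated next day with Septoria tritici spores. Held 48 h saturated at 24 °C, then 19 days at 20 °C before disease rating.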

Fusarium graminearum = settings: wheat head scab
Botrytis cinerea = test: Test F: tomato Botrytis, preventive spray on tomato seedlings, disease rating; settings: 200 ppm
Procedure, shortened: (§2)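 Tomato seedlings sprayed to run-off, as a preventive treatment, with compound suspended in acetone/water (50/50) containing 250 ppm Trem 014 surfactant; 200 ppm equals 500 g/ha. Disease then rated. Values are at 200 ppm unless marked * (40 ppm) or ** (50 ppm).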

Alternaria solani = test: Test H: tomato early blight, preventive spray on tomato seedlings, disease rating
Procedure, shortened: as §2

Rhizoctonia oryzae = test: Test I: turf brown patch, preventive spray on creeping bent grass seedlings, disease rating; settings: 200 ppm
From the text: The test compounds were first dissolved in acetone in an amount equal to 3% of the final volume and then suspended at the desired concentration (in ppm) in acetone and purified water (50/50 mix) containing 250 ppm of the surfactant Trem® 014 (polyhydric alcohol esters). The resulting test suspensions were then used in Tests A-L. Spraying a 200 ppm test suspension to the point of run-off on the test plants was the equivalent of an application rate of 500 g/ha. The test suspension was sprayed to the point of run-off on creeping bent grass seedlings. […] A dash (-) indicates no test results. All results are for 200 ppm except where followed by an “*”, which indicates 40 ppm or “**”, which indicates 50 ppm.

Phytophthora infestans = settings: 200 ppm; tomato late blight
Plasmopara viticola = test: Test K: grape downy mildew, spray on grape seedlings after inoculation, disease rating; settings: 200 ppm
From the text: The test compounds were first dissolved in acetone in an amount equal to 3% of the final volume and then suspended at the desired concentration (in ppm) in acetone and purified water (50/50 mix) containing 250 ppm of the surfactant Trem® 014 (polyhydric alcohol esters). The resulting test suspensions were then used in Tests A-L. Spraying a 200 ppm test suspension to the point of run-off on the test plants was the equivalent of an application rate of 500 g/ha. Grape seedlings were inoculated with a spore suspension of Plasmopara viticola (the causal agent of grape downy mildew) and incubated in a saturated atmosphere at 20° C. for 24 h. After a short drying period, the test suspension was sprayed to the point of run-off on the grape seedlings and then moved to a growth chamber at 20° C. for 6 days, after which the test units were placed back into a saturated atmosphere at 20° C. for 24 h. Upon removal, disease ratings were made. […] A dash (-) indicates no test results. All results are for 200 ppm except where followed by an “*”, which indicates 40 ppm or “**”, which indicates 50 ppm.

Pythium aphanidermatum = test: Test L: bluegrass pythium blight, preventive spray on bluegrass seedlings, disease rating; settings: 200 ppm
From the text: The test compounds were first dissolved in acetone in an amount equal to 3% of the final volume and then suspended at the desired concentration (in ppm) in acetone and purified water (50/50 mix) containing 250 ppm of the surfactant Trem® 014 (polyhydric alcohol esters). The resulting test suspensions were then used in Tests A-L. Spraying a 200 ppm test suspension to the point of run-off on the test plants was the equivalent of an application rate of 500 g/ha. The test suspension was sprayed to the point of run-off on bluegrass seedlings. […] A dash (-) indicates no test results. All results are for 200 ppm except where followed by an “*”, which indicates 40 ppm or “**”, which indicates 50 ppm.

SMILES	Percentage Disease Control, Test A ([1]; 200 ppm) [%]	Percentage Disease Control, Test B ([2]; 200 ppm) [%]	Percentage Disease Control, Test C (Septoria nodorum; 200 ppm) [%]	Percentage Disease Control, Test D (Septoria tritici; 200 ppm) [%]	Percentage Disease Control, Test E (Fusarium graminearum; 200 ppm) [%]	Percentage Disease Control, Test F (Botrytis cinerea) [%]	Percentage Disease Control, Test H (Alternaria solani; 200 ppm) [%]	Percentage Disease Control, Test I (Rhizoctonia oryzae) [%]	Percentage Disease Control, Test J (Phytophthora infestans) [%]	Percentage Disease Control, Test K (Plasmopara viticola) [%]	Percentage Disease Control, Test L (Pythium aphanidermatum) [%]	Percentage Disease Control, Test B ([2]; 40 ppm (*))	Percentage Disease Control, Test C (Septoria nodorum; 40 ppm (*))	Percentage Disease Control, Test D (Septoria tritici; 40 ppm (*))	Percentage Disease Control, Test A ([1]; 40 ppm (*))	Percentage Disease Control, Test E (Fusarium graminearum; 40 ppm (*))	Percentage Disease Control, Test H (Alternaria solani; 40 ppm (*))
COC(=O)NCc1cc(-c2ccn(CC#N)n2)ccc1Cl [Cmpd 26]	0	73	0	26	0	0	0	0	60	6	0						
CC[Si](C)(C)Cn1ccc(-c2ccc(Cl)c(CNC(=O)OC)c2)n1 [Cmpd 27]	96				93	0	0	0	0	76	0	99* %	94* %	96* %			
COC(=O)NCc1cc(-c2ccn(C)n2)ccc1Cl [Cmpd 28]	54	88	0	86	0	0	28	0	0	25	0						
COC(=O)NCc1cc(-c2ccn(-c3ccccc3)n2)ccc1Cl [Cmpd 34]						0		0	0	78	0	100* %	97* %	100* %	97* %	98* %	90* %
COC(=O)NCc1cc(C(C)=NOCC[Si](C)(C)C)ccc1Cl [Compound 1, methyl N-[[2-chloro-5-[1-[[2-(trimethylsilyl)ethoxy]imino]ethyl]phenyl]-methyl]carbamate]	100	100	100		100	0	0	0	0	66	0			100* %			
COC(=O)NCc1cc(C(C)=NOC[Si](C)(C)c2ccc(Cl)cc2)ccc1Cl [Compound 5]	99	100	99		0	0	77	0	0	23	0			100* %			

Source: patent US9198433B2, “Substituted benzene fungicides” (E I DU PONT DE NEMOURS AND COMPANY, priority 2007, dated 2015)
